Data reported in patent US20220008391A1, “NOVEL COMPOUNDS FOR CONTROLLING ARTHROPODS” (Bayer Animal Health GmbH, priority 2018, published 2022).
Values after ≈ are worked out from the molar mass of the structure shown.

Assay: Measurement of solubility in buffer at pH 6.5
Format: physicochemical
Conditions: aqueous buffer, kinetic from dmso stock; PBS buffer pH 6.5, shaken 24h at rt, LC-MSMS; read-out: Solubility of example compounds at pH 6.5
Method: Measurement of Solubility in Buffer at pH 6.5 2-4 mg of the test compound are dissolved in DMSO to reach a concentration of 50 g/L (solution A). To 10 μl of this solution 960 μl PBS buffer pH 6.5 are added (final concentration: 515 μg/1); the mixture is shaken for 24h at rt in a 96 well plate. An aliquot is centrifuged at 42000 rpm für 30 min. The supernatant is diluted with acetonitrile/water (8:2) 1:10 and 1:1000 resp. This diluted samples are analyzed by LC-MSMS. Calibration: 10 μl of solution A are diluted with 823 μl DMSO (final concentration: 600 μg/ml), which is further diluted with acetonitrile/water 8:2 by a factor of 100 (provides solution B). The calibration curve is obtained from solution B by further diluting with acetonitrile/water 8:2 with target concentrations of 1.2-12-60-600 ng/ml and injecting these four solutions for MS measurement. PBS-Puffer: 6.18 g sodium chloride and 3.96 g sodium dihydrogen phosphate are dissolved in 1 L aqua dist., the pH is adjusted to 6.5 with 1N sodium hydroxide. The following conditions were used for quantification: Autosampler without auto inject ahead setting, column: Waters OASIS HLB, 2,1×20 mm, 25μ, column temperature: 30° C., flow rate: 2.5 mL/min, injected volume: 2 μl, Splitter (before MS) 1:20.

Row | Compound | solubility at 24 h
1 | N#CC1(N(COC(=O)OCCC(=O)O)C(=O)c2cc(-c3cnn(-c4c(Cl)cc(C(F)(C(F)(F)F)C(F)(F)F)cc4OC(F)(F)F)c3)ccc2Cl)CC1 [Example 36, 3-[({[(2-Chloro-5-{1-[2-chloro-4-(1,1,1,2,3,3,3-heptafluoropropan-2-yl)-6-(trifluoromethoxy)phenyl]-1H-pyrazol-4-yl}benzoyl)(1-cyanocyclopropyl)amino]methoxy}carbonyl)oxy]propanoic Acid] | 16 µg/mL (≈ 20.1 µM)
2 | Cn1nc(C(F)(F)C(F)(F)F)c(C(F)(F)F)c1-n1cc(-c2ccc(Cl)c(C(=O)N(COC(=O)OCCOC(=O)C3(C(=O)O)CC3)C3(C#N)CC3)c2)cn1 [Example 27, 1-[10-{2-Chloro-5-[2′-methyl-5′-(pentafluoroethyl)-4′-(trifluoromethyl)-2′H-[1,3′-bipyrazol]-4-yl]phenyl}-9-(1-cyanocyclopropyl)-6,10-dioxo-2,5,7-trioxa-9-azadecanan-1-oyl]cyclopropane-1-carboxylic Acid] | 147 µg/mL (≈ 188 µM)
3 | N#CC1(N(COC(=O)O[C@H]2CC[C@H](OC(=O)/C=C/C(=O)O)CC2)C(=O)c2cc(-c3cnn(-c4c(Cl)cc(C(F)(C(F)(F)F)C(F)(F)F)cc4OC(F)(F)F)c3)ccc2Cl)CC1 [Example 16, (2E)-4-({trans-4-[({[(2-chloro-5-{1-[2-chloro-4-(1,1,1,2,3,3,3-heptafluoropropan-2-yl)-6-(trifluoromethoxy)phenyl]-1H-pyrazol-4-yl}benzoyl)(1-cyanocyclopropyl)amino]methoxy}carbonyl)oxy]cyclohexyl}oxy)-4-oxobut-2-enoic Acid] | 2 µg/mL (≈ 2.18 µM)
4 | N#CC1(N(COC(=O)OCCOC(=O)C2(C(=O)O)CC2)C(=O)c2cc(-c3cnn(-c4c(Cl)cc(C(F)(C(F)(F)F)C(F)(F)F)cc4OC(F)(F)F)c3)ccc2Cl)CC1 [Example 13, 1-[10-(2-Chloro-5-{1-[2-chloro-4-(1,1,1,2,3,3,3-heptafluoropropan-2-yl)-6-(trifluoromethoxy)phenyl]-1H-pyrazol-4-yl}phenyl)-9-(1-cyanocyclopropyl)-6,10-dioxo 2,5,7-trioxa-9-azadecanan-1-oyl]cyclopropane-1-carboxylic Acid] | 7 µg/mL (≈ 7.96 µM)
5 | CC(C)(COC(=O)CCC(=O)O)COC(=O)OCN(C(=O)c1cc(-c2cnn(-c3c(Cl)cc(C(F)(C(F)(F)F)C(F)(F)F)cc3OC(F)(F)F)c2)ccc1Cl)C1(C#N)CC1 [Example 5, 1-(2-Chloro-5-{1-[2-chloro-4-(1,1,1,2,3,3,3-heptafluoropropan-2-yl)-6-(trifluoromethoxy)phenyl]-1H-pyrazol-4-yl}phenyl)-2-(1-cyanocyclopropyl)-8,8-dimethyl-1,5,11-trioxo-4,6,10-trioxa-2-azatetradecan-14-oic Acid] | 2 µg/mL (≈ 2.2 µM)
6 | Cn1nc(C(F)(F)C(F)(F)F)c(C(F)(F)F)c1-n1cc(-c2ccc(Cl)c(C(=O)N(COC(=O)O[C@H]3CCC[C@@H]3OC(=O)/C=C/C(=O)O)C3(C#N)CC3)c2)cn1 [Example 42, (2E)-4-({(1S,2S)-2-[({[{2-Chloro-5-[2′-methyl-5′-(pentafluoroethyl)-4′-(trifluoromethyl)-2′H-[1,3′-bipyrazol]-4-yl]benzoyl}(1-cyanocyclopropyl)amino]methoxy}carbonyl)oxy]cyclopentyl}oxy)-4-oxobut-2-enoic Acid] | 38 µg/mL (≈ 47 µM)
7 | N#CC1(N(COC(=O)O[C@H]2CCC[C@H]2OC(=O)CCC(=O)O)C(=O)c2cc(-c3cnn(-c4c(Cl)cc(C(F)(C(F)(F)F)C(F)(F)F)cc4OC(F)(F)F)c3)ccc2Cl)CC1 (relative stereo) [Example 7, 4-({(rel 1R,2S)-2-[({[(2-chloro-5-{1-[2-chloro-4-(1,1,1,2,3,3,3-heptafluoropropan-2-yl)-6-(trifluoromethoxy)phenyl]-1H-pyrazol-4-yl}benzoyl)(1-cyanocyclopropyl)amino]methoxy}carbonyl)oxy]cyclopentyl}oxy)-4-oxobutanoic Acid] | 3 µg/mL (≈ 3.31 µM)
8 | Cn1nc(C(F)(F)C(F)(F)F)c(C(F)(F)F)c1-n1cc(-c2ccc(Cl)c(C(=O)N(COC(=O)OCCCOC(=O)CCC(=O)O)C3(C#N)CC3)c2)cn1 [Example 26, 1-{2-Chloro-5-[2′-methyl-5′-(pentafluoroethyl)-4′-(trifluoromethyl)-2′H-[1,3′-bipyrazol]-4-yl]phenyl}-2-(1-cyanocyclopropyl)-1,5,11-trioxo-4,6,10-trioxa-2-azatetradecan-14-oic Acid] | 96 µg/mL (≈ 122 µM)
9 | Cn1nc(C(F)(F)C(F)(F)F)c(C(F)(F)F)c1-n1cc(-c2ccc(Cl)c(C(=O)N(COC(=O)O[C@H]3CC[C@H](OC(=O)/C=C/C(=O)O)CC3)C3(C#N)CC3)c2)cn1 [Example 22, Trans (2E)-4-({-4-[({[{2-chloro-5-[2′-methyl-5′-(pentafluoroethyl)-4′-(trifluoromethyl)-2′H-[1,3′-bipyrazol]-4-yl]benzoyl}(1-cyanocyclopropyl)amino]methoxy}carbonyl)oxy]cyclohexyl}oxy)-4-oxobut-2-enoic Acid] | 17 µg/mL (≈ 20.7 µM)
10 | N#CC1(N(COC(=O)OCC2(C(=O)O)CC2)C(=O)c2cc(-c3cnn(-c4c(Cl)cc(C(F)(C(F)(F)F)C(F)(F)F)cc4OC(F)(F)F)c3)ccc2Cl)CC1 [Example 35, 1-{[({[(2-chloro-5-{1-[2-chloro-4-(1,1,1,2,3,3,3-heptafluoropropan-2-yl)-6-(trifluoromethoxy)phenyl]-1H-pyrazol-4-yl}benzoyl)(1-cyanocyclopropyl)amino]methoxy}carbonyl)oxy]methyl}cyclopropane-1-carboxylic Acid] | 8 µg/mL (≈ 9.74 µM)
11 | Cn1nc(C(F)(F)C(F)(F)F)c(C(F)(F)F)c1-n1cc(-c2ccc(Cl)c(C(=O)N(COC(=O)OCC3(C(=O)O)CC3)C3(C#N)CC3)c2)cn1 [Example 31, 1-{[({[{2-Chloro-5-[2′-methyl-5′-(pentafluoroethyl)-4′-(trifluoromethyl)-2′H-[1,3′-bipyrazol]-4-yl]benzoyl}(1-cyanocyclopropyl)amino]methoxy}carbonyl)oxy]methyl}cyclopropane-1-carboxylic Acid] | 168 µg/mL (≈ 232 µM)
12 | Cn1nc(C(F)(F)C(F)(F)F)c(C(F)(F)F)c1-n1cc(-c2ccc(Cl)c(C(=O)N(COC(=O)OCC(C)(C)C(=O)O)C3(C#N)CC3)c2)cn1 [Example 21, 3-[({[{2-Chloro-5-[2′-methyl-5′-(pentafluoroethyl)-4′-(trifluoromethyl)-2′H-[1,3′-bipyrazol]-4-yl]benzoyl}(1-cyanocyclopropyl)amino]methoxy}carbonyl)oxy]-2,2-dimethylpropanoic Acid] | 136 µg/mL (≈ 187 µM)
13 | Cn1nc(C(F)(F)C(F)(F)F)c(C(F)(F)F)c1-n1cc(-c2ccc(Cl)c(C(=O)N(COC(=O)OCCOC(=O)CCCC(=O)O)C3(C#N)CC3)c2)cn1 [Example 28, 1-{2-Chloro-5-[2′-methyl-5′-(pentafluoroethyl)-4′-(trifluoromethyl)-2′H-[1,3′-bipyrazol]-4-yl]phenyl}-2-(1-cyanocyclopropyl)-1,5,10-trioxo-4,6,9-trioxa-2-azatetradecan-14-oic Acid] | 76 µg/mL (≈ 96.8 µM)
14 | Cn1nc(C(F)(F)C(F)(F)F)c(C(F)(F)F)c1-n1cc(-c2ccc(Cl)c(C(=O)N(COC(=O)OCC(=O)O)C3(C#N)CC3)c2)cn1 [Example 30, [({[{2-Chloro-5-[2′-methyl-5′-(pentafluoroethyl)-4′-(trifluoromethyl)-2′H-[1,3′-bipyrazol]-4-yl]benzoyl}(1-cyanocyclopropyl)amino]methoxy}carbonyl)oxy]acetic Acid] | 398 µg/mL (≈ 581 µM)
